Source: patent publication US20110097405A1, “ESTRADIOL-CONTAINING DRUG DELIVERY SYSTEM” (Bayer Schering Pharma Aktiengesellschaft, priority 2008, published 2011)

What was measured:
[1] = Clinical study (PK study): relative bioavailability and PK profile of estradiol after wafers vs oral tablet and intranasal spray; type: in vivo, healthy postmenopausal women; conditions: female, human
Method: Finally, it is the present inventors' experience that the serum estradiol values are somewhat dependent on the applied laboratory assay.
The following not-dose-normalised data, where all parameters are expressed in percentage of the respective Aerodiol® values, were obtained:
Estradiol may be determined by two different assays:
The analytes and their deuterated internal standards are extracted from 1.00 ml of human serum using BondElut Certify® solid-phase cartridges. Estradiol and estrone are eluted from the solid phase cartridges with ethyl acetate. The analytes undergo three separate derivatisation steps: (1) reaction with pentafluorobenzoyl chloride, (2) reaction with O-(2,3,4,5,6-pentafluorobenzyl)-hydroxylamine hydrochloride, and (3) reaction with MSTFA. The derivatised analytes are then separated by gas chromatography using a DB-17 fused silica capillary column and detected by tandem mass spectrometry using negative ion chemical ionization. A 1/(concentration)^2 weighted least-squares regression procedure is used to fit a linear function to the calibration data.
A 500 μl sample aliquot is fortified with 25 μl of internal standard working solution. Analytes are isolated through liquid-liquid extraction with 5.0 ml of 10:90 (v/v) ethyl acetate/hexane. The solvent is evaporated under a stream of nitrogen at 40-50° C. and the remaining residue is derivatizsd. The derivatised analytes are extracted into 3.0 m of 10:90 (v/v) ethyl acetate/hexane, the solvent is evaporated, and the remaining residue is reconstituted with 150 μl acetonitrile and 200 μl water. The final extract is analyzed via high-performance liquid chromatography with tandem mass spectrometry detection.

[2] = Kuhnt et al.; cited from earlier work
[3] = intranasal, cited from earlier work

SMILES	bioavailability ([1]; in vivo)	bioavailability, usually ([1]; in vivo)	Cmax ([1]; serum, 90 ug) [ng/mL]	bioavailability after oral administration [2]	time until pre-treatment level is reached ([3]; after administration)	time to maximum plasma levels [3] [min]
CCCCC(=O)O[C@H]1CC[C@H]2[C@@H]3CCc4cc(O)ccc4[C@H]3CC[C@]12C [estradiol valerate]	30-60%	30-50%	–	–	–	–
C[C@]12CC[C@@H]3c4ccc(O)cc4CC[C@H]3[C@@H]1CC[C@@H]2O [estradiol]	–	–	0.5 to 0.8	about 5%	about 12 hours	10 to 30
